Measurements: ChEMBL document CHEMBL1201862, “PubChem BioAssay data set” (2004)
Activity calls are given as the source filed them. Cut-off read from the data, not from the text of the source, for most assays here: actives have a measured IC50 and inactives only a lower limit.

How the values were obtained:
Type in all cases: functional
[1] = biological target: T1, Neuropeptides B/W receptor type 1 (Homo sapiens, UniProt P48145); experiment: human NPBW1 receptor blockade, IC50 – cell-based, fluorescence, dose response, late-stage follow-up (AID 463251)
T1 sequence (P48145 whole entry): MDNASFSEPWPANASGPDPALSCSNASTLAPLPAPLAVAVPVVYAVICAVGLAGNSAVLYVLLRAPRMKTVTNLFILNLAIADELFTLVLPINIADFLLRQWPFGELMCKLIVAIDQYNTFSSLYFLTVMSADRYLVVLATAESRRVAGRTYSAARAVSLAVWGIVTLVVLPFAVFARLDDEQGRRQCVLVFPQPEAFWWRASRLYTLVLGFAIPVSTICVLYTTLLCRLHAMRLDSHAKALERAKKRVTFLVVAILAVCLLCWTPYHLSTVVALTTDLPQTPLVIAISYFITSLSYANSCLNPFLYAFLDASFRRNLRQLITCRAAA

[2] = biological target: Melanin-concentrating hormone receptor 1 (Homo sapiens, UniProt Q99705); experiment: Late-stage fluorescence-based counterscreen for antagonists of the G-protein coupled receptor 7 (GPR7): cell-based dose response assay to identify antagonists of the melanin-concentrating hormone receptor 1 (MCHR1). [Related pubchem assays (depositor defined):AID1861, AID1880, AID1952, AID2148, AID2251, AID2257, AID485339];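 note: stimulated with 30 nM MCH peptide agonist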
Chain of Melanin-concentrating hormone receptor 1 (Q99705 whole entry): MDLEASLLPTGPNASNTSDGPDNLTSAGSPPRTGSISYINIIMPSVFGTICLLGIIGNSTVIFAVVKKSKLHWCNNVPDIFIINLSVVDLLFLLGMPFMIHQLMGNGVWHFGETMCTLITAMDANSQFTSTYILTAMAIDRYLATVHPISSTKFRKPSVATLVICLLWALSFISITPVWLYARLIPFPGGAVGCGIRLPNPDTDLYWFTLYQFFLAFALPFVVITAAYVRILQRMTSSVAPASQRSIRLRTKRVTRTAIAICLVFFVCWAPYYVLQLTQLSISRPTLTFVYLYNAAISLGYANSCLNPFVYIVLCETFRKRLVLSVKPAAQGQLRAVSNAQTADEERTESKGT

[3] = biological target: T2, Voltage-gated N-type calcium channel alpha-1B subunit/Amyloid beta A4 precursor protein-binding family A member 1 (Homo sapiens, UniProt Q00975+Q02410); experiment: disruptors of Mint-PDZ/N-type channel peptide interaction – biochemical, HTRF, SAR follow-up (AID 2489)
T2 sequence (Q00975 whole entry): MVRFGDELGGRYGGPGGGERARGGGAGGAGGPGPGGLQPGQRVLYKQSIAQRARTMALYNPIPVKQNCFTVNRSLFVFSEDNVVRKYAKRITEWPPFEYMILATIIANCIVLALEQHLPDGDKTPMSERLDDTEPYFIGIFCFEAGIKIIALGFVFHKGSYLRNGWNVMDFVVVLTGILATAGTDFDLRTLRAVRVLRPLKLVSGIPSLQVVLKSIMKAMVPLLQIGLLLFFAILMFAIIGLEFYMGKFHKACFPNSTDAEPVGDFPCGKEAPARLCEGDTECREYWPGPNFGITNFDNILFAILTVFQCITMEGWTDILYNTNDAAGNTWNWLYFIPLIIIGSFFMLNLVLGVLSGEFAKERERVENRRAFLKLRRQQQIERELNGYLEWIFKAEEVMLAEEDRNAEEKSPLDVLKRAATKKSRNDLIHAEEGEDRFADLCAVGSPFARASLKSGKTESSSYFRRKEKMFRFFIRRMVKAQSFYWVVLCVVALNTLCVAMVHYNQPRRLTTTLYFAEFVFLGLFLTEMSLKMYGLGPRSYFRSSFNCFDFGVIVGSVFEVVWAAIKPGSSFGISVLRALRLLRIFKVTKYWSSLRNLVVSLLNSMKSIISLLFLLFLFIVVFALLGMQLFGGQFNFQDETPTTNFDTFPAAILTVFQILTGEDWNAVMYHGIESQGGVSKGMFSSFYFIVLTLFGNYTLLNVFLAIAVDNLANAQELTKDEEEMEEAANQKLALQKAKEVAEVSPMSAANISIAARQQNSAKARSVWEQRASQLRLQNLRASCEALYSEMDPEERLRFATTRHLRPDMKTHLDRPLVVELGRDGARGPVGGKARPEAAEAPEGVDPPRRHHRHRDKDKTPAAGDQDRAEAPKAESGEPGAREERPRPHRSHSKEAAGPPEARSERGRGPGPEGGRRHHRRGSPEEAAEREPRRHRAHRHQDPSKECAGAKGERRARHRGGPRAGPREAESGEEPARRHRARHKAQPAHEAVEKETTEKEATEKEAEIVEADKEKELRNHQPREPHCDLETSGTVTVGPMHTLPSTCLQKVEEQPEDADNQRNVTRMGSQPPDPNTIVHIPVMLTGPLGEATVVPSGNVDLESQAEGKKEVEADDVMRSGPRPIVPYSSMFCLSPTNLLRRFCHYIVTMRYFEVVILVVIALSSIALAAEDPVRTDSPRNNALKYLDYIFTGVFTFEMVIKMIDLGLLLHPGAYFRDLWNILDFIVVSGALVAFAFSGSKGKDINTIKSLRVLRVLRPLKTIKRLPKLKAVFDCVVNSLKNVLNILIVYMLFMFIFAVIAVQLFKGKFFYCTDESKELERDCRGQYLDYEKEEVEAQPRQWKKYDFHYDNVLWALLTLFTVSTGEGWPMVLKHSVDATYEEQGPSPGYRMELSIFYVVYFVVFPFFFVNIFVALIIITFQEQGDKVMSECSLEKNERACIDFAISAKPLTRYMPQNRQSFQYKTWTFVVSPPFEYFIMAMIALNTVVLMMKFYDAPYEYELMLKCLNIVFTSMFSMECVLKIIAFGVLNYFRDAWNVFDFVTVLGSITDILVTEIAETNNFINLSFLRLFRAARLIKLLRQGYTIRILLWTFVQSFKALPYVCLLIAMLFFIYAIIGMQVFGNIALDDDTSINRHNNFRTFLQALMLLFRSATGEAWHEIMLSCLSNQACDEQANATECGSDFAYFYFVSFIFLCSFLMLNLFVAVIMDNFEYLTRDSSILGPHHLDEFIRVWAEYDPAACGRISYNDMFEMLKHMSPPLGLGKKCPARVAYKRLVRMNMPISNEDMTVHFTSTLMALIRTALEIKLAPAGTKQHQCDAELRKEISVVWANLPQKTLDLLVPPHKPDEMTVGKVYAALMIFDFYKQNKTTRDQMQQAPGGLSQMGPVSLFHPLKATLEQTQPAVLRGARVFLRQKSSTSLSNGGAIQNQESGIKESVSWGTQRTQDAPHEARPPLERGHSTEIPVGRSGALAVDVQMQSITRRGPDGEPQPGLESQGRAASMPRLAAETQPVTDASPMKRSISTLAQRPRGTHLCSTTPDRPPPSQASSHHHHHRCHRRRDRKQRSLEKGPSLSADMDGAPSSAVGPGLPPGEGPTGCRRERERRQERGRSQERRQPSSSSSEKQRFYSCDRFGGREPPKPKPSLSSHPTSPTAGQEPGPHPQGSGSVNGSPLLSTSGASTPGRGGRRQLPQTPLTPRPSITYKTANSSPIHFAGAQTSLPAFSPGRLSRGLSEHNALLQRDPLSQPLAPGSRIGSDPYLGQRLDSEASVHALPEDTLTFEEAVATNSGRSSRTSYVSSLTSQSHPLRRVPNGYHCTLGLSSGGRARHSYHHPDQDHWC
T2 sequence (Q02410 whole entry): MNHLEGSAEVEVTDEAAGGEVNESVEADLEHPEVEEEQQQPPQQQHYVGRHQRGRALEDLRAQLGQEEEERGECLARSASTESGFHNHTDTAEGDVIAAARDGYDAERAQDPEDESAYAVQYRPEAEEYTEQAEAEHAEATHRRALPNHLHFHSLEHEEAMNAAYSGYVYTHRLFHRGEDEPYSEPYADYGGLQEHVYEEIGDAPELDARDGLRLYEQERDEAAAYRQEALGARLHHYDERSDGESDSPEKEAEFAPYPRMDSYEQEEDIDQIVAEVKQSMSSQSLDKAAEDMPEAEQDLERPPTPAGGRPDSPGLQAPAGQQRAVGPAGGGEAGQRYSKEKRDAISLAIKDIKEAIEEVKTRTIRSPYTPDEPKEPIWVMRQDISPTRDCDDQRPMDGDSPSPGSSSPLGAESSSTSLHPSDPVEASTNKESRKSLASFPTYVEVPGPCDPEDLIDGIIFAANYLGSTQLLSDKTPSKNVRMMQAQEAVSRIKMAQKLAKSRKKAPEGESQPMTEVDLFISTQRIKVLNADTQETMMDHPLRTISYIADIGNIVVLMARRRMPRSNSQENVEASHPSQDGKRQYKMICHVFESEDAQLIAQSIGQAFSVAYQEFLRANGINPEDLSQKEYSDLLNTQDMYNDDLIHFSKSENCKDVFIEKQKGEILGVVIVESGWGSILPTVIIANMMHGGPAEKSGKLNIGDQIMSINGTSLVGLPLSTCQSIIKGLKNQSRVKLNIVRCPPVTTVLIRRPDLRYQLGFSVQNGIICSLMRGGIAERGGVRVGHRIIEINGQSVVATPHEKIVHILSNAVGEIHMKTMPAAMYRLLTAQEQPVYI

[4] = biological target: T2, Voltage-gated N-type calcium channel alpha-1B subunit/Amyloid beta A4 precursor protein-binding family A member 1; experiment: disruptors of Mint-PDZ/N-type channel peptide interaction – biochemical, HTRF, set 2, SAR follow-up (AID 434980)

IC50 [1] | IC50 [2] | IC50 [3] | IC50 [4] | Compound
1.6 µM (active) | 3.1 µM (active) | – | – | CC(C)c1ccc(-n2ncc(Cl)c(Oc3cccc(N(C)C)c3)c2=O)cc1
– | – | > 56.8 µM (inactive) | > 56.8 µM (inactive) | O=C(NCCc1ccncc1)c1cc(-c2ccco2)nc2ccccc12
